Laboratory results: patent US10100064B2, “Purine inhibitors of human phosphatidylinositol 3-kinase delta” (Merck Sharp & Dohme Corp., priority 2014, dated 2018)

Legend:
PI3Kalpha = molecular target: T1, PI3Kalpha (Homo sapiens, UniProt P42336); assay: HTRF PI3K biochemical assay, alpha isoform (selectivity versus delta); conditions: relative ratio PI3K-alpha IC50 value / PI3K-delta IC50 value
T1 construct: purchased Upstate; Millipore 14-602
From the text: (§1) HTRF PI3K Biochemical Assay to Measure Intrinsic Potency of Compound Inhibitors
(§2) The PI3-Kinase biochemical assays were developed to measure the intrinsic potency and compound dependent inhibition of the alpha, beta, delta, and gamma PI3K isoform enzymes. This assay was developed and further optimized from a kit produced by Upstate (Millipore catalog #33-047) and has been configured for HTS and SAR screening. Briefly, this procedure exploits the exquisite specificity and high affinity binding of […] phosphatidyl(3,4,5)triphosphate (PIP3) to the GRP1 pleckstrin homology (PH) domain to generate the signal. In the absence of PIP3, an HTRF (Homogeneous Time-Resolved Fluorescence energy transfer) complex is formed consisting of europium (Eu)-labeled anti-GST, GSTtagged GRP1-PH domain, biotin-PIP3 and streptavidin conjugated APC. The native PIP3 produced by PI3-Kinase activity disrupts in a competitive manner the biotin-PIP3 from the PH domain, resulting in the loss of energy transfer (HTRF complex) and a decrease in the signal. The format of this assay is the same for all 4 isoforms of PI3K; the differences lie in the concentration of enzyme used to achieve robust assay window. The alpha, beta, and delta assays are run at 0.5, 1, and 0.3 nM enzymes and the gamma assay is run at 5 nM enzyme. The ATP concentration is 100 uM in the alpha, beta, and delta assays and 50 uM ATP in the gamma assay. All reactions are run at 5 uM PIP2.
(§3) Compounds are serially diluted (3-fold in 100% DMSO) across a 384-well polypropylene source plated from column 3 to column 12 and column 13 to column 22, to yield 10 concentration dose response for each test compound. Columns 1, 2, 23 and 24 contain either only DMSO or pharmacological known control inhibitor. Once titrations are made, 2.5 nL of the compounds on 384 well plates are reformatted and transferred by acoustic dispense in quadruplicates to a 1536 assay plate (Greiner) to assay across all four PI3K isoform enzymes.
(§4) The PI3-Kinase biochemical assay was optimized using the HTRF kit provided by Upstate (Millipore). The assay kit contains six reagents: 1) 4× Reaction Buffer; 2) native PIP2 (substrate); 3) Stop (EDTA); 4) Detection Mix A (Streptavidin-APC); 5) Detection Mix B (Eu-labeled Anti-GST plus GST-tagged PH-domain); 6) Detection Mix C. In addition, the following items were obtained or purchased; PI3Kinase (alpha 14-602, beta 14-603, gamma 14-558 and delta 14-604 from Upstate; Millipore), dithiothreitol (Sigma, D-5545), Adenosine-5′ triphosphate (InVitrogen, Cat#AS001A), native PIP3 (PI(3,4,5)P3, diC8, H^+, CELLSIGNALS, INC. Cat #907) DMSO (Sigma, 472301).
(§5) PI3Kinase Reaction Buffer is prepared by dilution the stock 1:4 with de-ionized water. DTT, PIP2 and Biotin-PIP3 were added to 1536 assay plate at a final concentration of 5 mM, […] 25 nM on the day of use. Enzyme addition and compound pre-incubation are initiated by the addition of 1.25 ul of PI3K (at twice its final concentration) in the 1× reaction buffer to all wells using a BioRaptor. Plates are incubated at room temperature for 15 minutes. Reactions are initiated by addition of 1.25 ul of 2× substrate solution (PIP2 and ATP in 1× reaction buffer) using BioRaptor. Plates are incubated in humidified chamber at room temperature for one hour. Reactions are quenched by addition of 0.625 uL of stop solution to all wells using the BioRaptor. The quenched reactions are then processed to detect product formation by adding 0.625 uL of Detection Solution to all wells using the BioRaptor (Detection mix C, Detection Mix A, and Detection Mix B combined together in an 18:1:1 ratio prepared 2 hours prior to use). Following a one hour incubation in the dark, the HTRF signal is measured on the Envision plate reader set for 330 nm excitation and dual emission detection at […]. […]

PI3Kdelta = molecular target: T2, PI3Kdelta (Homo sapiens, UniProt O00329); assay: HTRF PI3K biochemical assay, delta isoform; conditions: 0.3 nM enzyme, 100 uM ATP, 5 uM PIP2, form screened (Neutral or TFA salt) given per compound
T2 construct: purchased Upstate; Millipore 14-604
T2 sequence (O00329 whole entry, canonical isoform): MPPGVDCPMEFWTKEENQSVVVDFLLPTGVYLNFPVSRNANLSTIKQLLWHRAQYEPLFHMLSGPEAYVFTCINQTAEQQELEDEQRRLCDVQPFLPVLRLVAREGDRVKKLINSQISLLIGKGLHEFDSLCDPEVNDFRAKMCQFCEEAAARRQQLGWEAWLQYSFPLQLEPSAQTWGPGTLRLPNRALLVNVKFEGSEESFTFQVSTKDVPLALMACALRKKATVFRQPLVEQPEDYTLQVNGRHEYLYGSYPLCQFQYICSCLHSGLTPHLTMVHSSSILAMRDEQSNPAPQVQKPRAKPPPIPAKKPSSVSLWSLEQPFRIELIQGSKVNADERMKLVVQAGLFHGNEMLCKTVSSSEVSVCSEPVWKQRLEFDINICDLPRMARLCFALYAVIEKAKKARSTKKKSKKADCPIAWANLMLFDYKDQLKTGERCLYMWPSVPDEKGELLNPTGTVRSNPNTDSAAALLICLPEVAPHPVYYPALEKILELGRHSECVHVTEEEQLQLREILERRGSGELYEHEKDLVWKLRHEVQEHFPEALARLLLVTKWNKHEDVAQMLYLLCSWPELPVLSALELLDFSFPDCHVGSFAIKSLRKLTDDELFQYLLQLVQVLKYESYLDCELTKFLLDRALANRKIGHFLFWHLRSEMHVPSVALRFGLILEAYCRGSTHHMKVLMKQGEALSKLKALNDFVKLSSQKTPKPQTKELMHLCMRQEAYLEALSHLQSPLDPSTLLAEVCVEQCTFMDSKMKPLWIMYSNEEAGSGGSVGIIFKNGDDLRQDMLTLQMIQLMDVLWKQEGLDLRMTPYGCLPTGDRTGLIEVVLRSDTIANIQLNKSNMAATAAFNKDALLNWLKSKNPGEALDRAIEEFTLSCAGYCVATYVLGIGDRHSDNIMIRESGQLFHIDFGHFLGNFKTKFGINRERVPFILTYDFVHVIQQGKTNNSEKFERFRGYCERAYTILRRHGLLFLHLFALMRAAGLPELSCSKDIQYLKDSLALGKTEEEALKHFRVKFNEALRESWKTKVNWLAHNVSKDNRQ
T2 sequence (P27986 whole entry partner, canonical isoform): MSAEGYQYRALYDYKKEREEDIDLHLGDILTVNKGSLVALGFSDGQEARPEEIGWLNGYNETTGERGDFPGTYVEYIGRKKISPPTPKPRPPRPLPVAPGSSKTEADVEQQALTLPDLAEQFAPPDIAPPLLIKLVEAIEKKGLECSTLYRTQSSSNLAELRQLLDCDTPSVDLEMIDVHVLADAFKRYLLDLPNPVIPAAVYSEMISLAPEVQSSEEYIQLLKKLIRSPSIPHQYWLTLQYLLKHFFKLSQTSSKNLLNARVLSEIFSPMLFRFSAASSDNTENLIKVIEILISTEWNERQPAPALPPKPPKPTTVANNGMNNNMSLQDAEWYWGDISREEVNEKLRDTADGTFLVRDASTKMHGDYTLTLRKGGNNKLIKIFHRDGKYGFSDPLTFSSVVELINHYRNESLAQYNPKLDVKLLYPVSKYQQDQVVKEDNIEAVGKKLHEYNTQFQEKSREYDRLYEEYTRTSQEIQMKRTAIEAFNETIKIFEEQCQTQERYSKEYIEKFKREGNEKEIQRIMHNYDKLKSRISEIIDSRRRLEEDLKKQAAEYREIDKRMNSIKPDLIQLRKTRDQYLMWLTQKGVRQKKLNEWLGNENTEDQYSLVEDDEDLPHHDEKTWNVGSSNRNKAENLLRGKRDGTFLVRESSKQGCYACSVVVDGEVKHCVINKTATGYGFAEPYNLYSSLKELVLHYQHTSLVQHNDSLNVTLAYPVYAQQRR
From the text: as §1, §2, §3, §4, §5

T1 sequence (P42336 whole entry, canonical isoform): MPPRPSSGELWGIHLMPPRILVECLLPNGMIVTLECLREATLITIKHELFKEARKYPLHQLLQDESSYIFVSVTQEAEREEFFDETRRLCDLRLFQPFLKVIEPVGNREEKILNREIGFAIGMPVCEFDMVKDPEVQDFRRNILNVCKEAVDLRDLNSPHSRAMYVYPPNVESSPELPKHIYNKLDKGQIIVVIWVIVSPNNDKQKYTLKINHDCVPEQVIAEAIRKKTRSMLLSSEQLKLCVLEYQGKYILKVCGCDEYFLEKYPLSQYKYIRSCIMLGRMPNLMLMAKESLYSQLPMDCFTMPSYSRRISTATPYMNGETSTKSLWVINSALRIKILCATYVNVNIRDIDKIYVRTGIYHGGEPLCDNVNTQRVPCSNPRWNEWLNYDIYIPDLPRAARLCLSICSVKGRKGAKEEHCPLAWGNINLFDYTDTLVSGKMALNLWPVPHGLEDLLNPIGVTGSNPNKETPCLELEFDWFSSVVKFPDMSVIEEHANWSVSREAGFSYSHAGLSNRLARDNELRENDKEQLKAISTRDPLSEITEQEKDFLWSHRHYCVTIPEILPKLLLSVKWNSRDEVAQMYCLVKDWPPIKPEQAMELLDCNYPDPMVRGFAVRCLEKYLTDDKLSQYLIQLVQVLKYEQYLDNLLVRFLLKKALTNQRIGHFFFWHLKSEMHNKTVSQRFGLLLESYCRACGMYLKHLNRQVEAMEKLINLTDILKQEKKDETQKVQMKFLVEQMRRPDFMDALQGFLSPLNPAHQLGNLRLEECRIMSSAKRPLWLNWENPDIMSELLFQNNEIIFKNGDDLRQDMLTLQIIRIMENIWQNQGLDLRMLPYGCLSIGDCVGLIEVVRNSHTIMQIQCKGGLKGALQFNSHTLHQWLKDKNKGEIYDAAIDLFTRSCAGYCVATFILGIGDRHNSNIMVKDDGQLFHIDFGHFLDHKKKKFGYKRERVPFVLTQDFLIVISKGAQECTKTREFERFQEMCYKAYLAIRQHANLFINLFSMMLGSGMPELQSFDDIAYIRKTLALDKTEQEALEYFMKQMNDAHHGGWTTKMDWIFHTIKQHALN
T1 sequence (P27986 whole entry partner, canonical isoform): as the sequence (P27986 whole entry partner, canonical isoform) above

Row | SMILES | Selectivity versus PI3Kalpha (PI3Kalpha) | IC50 (PI3Kdelta) [nM]
1 | CCn1c(-c2cnn(-c3ccccc3)c2)nc2c(NC3CCc4nnc(C5CC5)n4C3)ncnc21 (racemic) [Compound 1-10, (S and R)-N-(3-cyclopropyl-5,6,7,8-tetrahydro[1,2,4]triazolo[4,3-a]pyridin-6-yl)-9-ethyl-8-(1-phenyl-1H-pyrazol-4-yl)-9H-purin-6-amine] | >10 | < 1
2 | CCn1c(-c2ccc(C(F)(F)F)nc2)nc2c(NC3CCc4nnc(C5CC5)n4C3)ncnc21 (racemic) [Compound 1-11, (S and R)-N-(3-cyclopropyl-5,6,7,8-tetrahydro[1,2,4]triazolo[4,3-a]pyridin-6-yl)-9-ethyl-8-[6-(trifluoromethyl)pyridin-3-yl]-9H-purin-6-amine] | >10 | 4.1
3 | CCn1c(-c2ccc(OC)nc2)nc2c(NC3CCc4nnc(C5CC5)n4C3)ncnc21 (racemic) [Compound 1-12, (S and R)-N-(3-cyclopropyl-5,6,7,8-tetrahydro[1,2,4]triazolo[4,3-a]pyridin-6-yl)-9-ethyl-8-(6-methoxypyridin-3-yl)-9H-purin-6-amine] | >10 | 1.2
4 | CCn1c(-c2cnc(OC)c(F)c2)nc2c(NC3CCc4nnc(C5CC5)n4C3)ncnc21 (racemic) [Compound 1-13, (S and R)-N-(3-cyclopropyl-5,6,7,8-tetrahydro[1,2,4]triazolo[4,3-a]pyridin-6-yl)-9-ethyl-8-(5-fluoro-6-methoxypyridin-3-yl)-9H-purin-6-amine] | >10 | 1.1
5 | CCn1c(-c2ccc(OC(F)F)nc2)nc2c(NC3CCc4nnc(C5CC5)n4C3)ncnc21 (racemic) [Compound 1-14, (S and R)-N-(3-cyclopropyl-5,6,7,8-tetrahydro[1,2,4]triazolo[4,3-a]pyridin-6-yl)-8-[6-(difluoromethoxy)pyridin-3-yl]-9-ethyl-9H-purin-6-amine] | >10 | 2.1
6 | CCn1c(-c2cnc(OC)c(C)c2)nc2c(NC3CCc4nnc(C5CC5)n4C3)ncnc21 (racemic) [Compound 1-15, (S and R)-N-(3-cyclopropyl-5,6,7,8-tetrahydro[1,2,4]triazolo[4,3-a]pyridin-6-yl)-9-ethyl-8-(6-methoxy-5-methylpyridin-3-yl)-9H-purin-6-amine] | >10 | < 1
7 | CCn1c(-c2ccc(OC(F)(F)F)cc2)nc2c(NC3CCc4nnc(C5CC5)n4C3)ncnc21 (racemic) [Compound 1-16, (S and R)-N-(3-cyclopropyl-5,6,7,8-tetrahydro[1,2,4]triazolo[4,3-a]pyridin-6-yl)-9-ethyl-8-[4-(trifluoromethoxy)phenyl]-9H-purin-6-amine] | >10 | 3.9
8 | CCn1ncc(-c2nc3c(NC4CCc5nnc(C6CC6)n5C4)ncnc3n2CC)c1C (racemic) [Compound 1-17, (S and R)-N-(3-cyclopropyl-5,6,7,8-tetrahydro[1,2,4]triazolo[4,3-a]pyridin-6-yl)-9-ethyl-8-(1-ethyl-5-methyl-1H-pyrazol-4-yl)-9H-purin-6-amine] | >10 | < 1
9 | CCn1c(C(=O)NCC(F)(F)F)nc2c(NC3CCc4nnc(C(C)C)n4C3)ncnc21 (racemic) [Compound 1-37, (S and R)-9-ethyl-6-{[3-(1-methylethyl)-5,6,7,8-tetrahydro[1,2,4]triazolo[4,3-a]pyridin-6-yl]amino}-N-(2,2,2-trifluoroethyl)-9H-purine-8-carboxamide] | >10 | 12
10 | CCn1c(-c2cnc(C)nc2)nc2c(NC3CCc4c(c(C5CC5)nn4C(=O)OC(C)(C)C)C3)ncnc21 (racemic) [Compound 2-1, (S and R)-tert-butyl 3-cyclopropyl-5-{[9-ethyl-8-(2-methylpyrimidin-5-yl)-9H-purin-6-yl]amino}-4,5,6,7-tetrahydro-1H-indazole-1-carboxylate] | >10 | < 1
11 | CCn1c(-c2cnc(C)nc2)nc2c(NC3CCc4c(c(C(C)C)nn4CCN(C)C)C3)ncnc21 (racemic) [Compound 2-3, (S and R)-N-{1-[2-(dimethylamino)ethyl]-3-(1-methylehyl)-4,5,6,7-tetrahydro-1H-indazol-5-yl}-9-ethyl-8-(2-methylpyrimidin-5-yl)-9H-purin-6-amine] | >10 | 7.4
12 | CCn1c(C(F)F)nc2c(NC3CCc4[nH]nc(C(C)C)c4C3)ncnc21 (racemic) [Compound 2-9, (S and R)-8-(difluoromethyl)-9-ethyl-N-[3-(1-methylethyl)-4,5,6,7-tetrahydro-1H-indazol-5-yl]-9H-purin-6-amine] | >10 | 60
13 | CCn1c(-c2cnc(C)nc2)nc2c(NC3CCc4c(c(C(C)C)nn4C(C)=O)C3)ncnc21 (racemic) [Compound 2-12, (S and R)-N-[1-acetyl-3-(1-methylethyl)-4,5,6,7-tetrahydro-1H-indazol-5-yl]-9-ethyl-8-(2-methylpyrimidin-5-yl)-9H-purin-6-amine] | >10 | 15
14 | CCn1c(-c2cnc(C)nc2)nc2c(NC3CCc4c(c(C(C)C)nn4C(=O)c4ccccc4)C3)ncnc21 (racemic) [Compound 2-13, (S and R)-9-ethyl-N-[3-(1-methylethyl)-1-(phenylcarbonyl)-4,5,6,7-tetrahydro-1H-indazol-5-yl]-8-(2-methylpyrimidin-5-yl)-9H-purin-6-amine] | >10 | 30
15 | CCn1c(-c2cnc(C)nc2)nc2c(NC3CCc4c(c(C(C)C)nn4C(=O)CN(C)C)C3)ncnc21 (racemic) [Compound 2-14, (S and R)-N-{1-[(dimethylamino)acetyl]-3-(1-methylethyl)-4,5,6,7-tetrahydro-1H-indazol-5-yl}-9-ethyl-8-(2-methylpyrimidin-5-yl)-9H-purin-6-amine] | >10 | 20
16 | CCn1c(-c2cnc(C)nc2)nc2c(NC3CCc4c(c(C(C)C)nn4C(=O)CC(C)(C)C)C3)ncnc21 (racemic) [Compound 2-15, (S and R)-N-[1-(3,3-dimethylbutanoyl)-3-(1-methylethyl)-4,5,6,7-tetrahydro-1H-indazol-5-yl]-9-ethyl-8-(2-methylpyrimidin-5-yl)-9H-purin-6-amine] | >10 | 78
17 | CCn1c(-c2cnc(C)nc2)nc2c(NC3CCc4c(c(C(C)C)nn4C(=O)OC(C)(C)C)C3)ncnc21 (racemic) [Compound 2-16, (S and R)-tert-butyl 5-{[9-ethyl-8-(2-methylpyrirnidin-5-yl)-9H-purin-6-yl]amino}-3-(1-methylethyl)-4,5,6,7-tetrahydro-1H-indazole-1-carboxylate] | >10 | < 1
18 | CCOC(=O)n1nc(C(C)C)c2c1CCC(Nc1ncnc3c1nc(-c1cnc(C)nc1)n3CC)C2 (racemic) [Compound 2-17, (S and R)-ethyl 5-{[9-ethyl-8-(2-methylpyrimidin-5-yl)-9H-purin-6-yl]amino}-3-(1-methylethyl)-4,5,6,7-tetrahydro-1H-indazole-1-carboxylate] | >10 | 2.3
